Columns and labels:
[1] = tested on: HepG2, MCF-7, MDA-MB-231, and HeLa cell lines; test: In vitro cytotoxicity MTT assay, all tested cell lines; type: cell-based, human
Experimental: (§1) Briefly, the cytotoxicity of the synthesized derivatives and the reference compounds was assessed via the MTT assay on four cancer cell lines. The cells were cultured in an RPMI11640 medium with 10% fetal bovine serum (FBS) and an antibiotic cocktail of […] streptomycin and 100 units/mL penicillin. Cancer cell lines were seeded independently in 96-well plates at a concentration of 1.0 × 10^4 cells/well at 37 °C, 5% CO2, and 100% relative humidity for 48 h. Afterwards, the incubated cells were treated with five concentrations of the synthesized derivatives for 24 h. Then, 20 µL MTT (5 mg/mL) was added and left for 4 h before adding 100 µL dimethyl sulfoxide (DMSO) to each well to solubilize the formed formazan.

MDA-MB-231 = test: In vitro cytotoxicity MTT assay; type: cell-based; settings: Homo sapiens, 24 h treatment, mean ± SD of three experiments
Experimental: as §1

HepG2 = test: In vitro cytotoxicity MTT assay; type: cell-based; settings: Homo sapiens, 24 h treatment, mean ± SD of three experiments
Experimental: as §1

MCF-7 = test: In vitro cytotoxicity MTT assay; type: cell-based; settings: Homo sapiens, MCF7, 24 h treatment, mean ± SD of three experiments
Experimental: as §1

HeLa = test: In vitro cytotoxicity MTT assay; type: cell-based; settings: Homo sapiens, 24 h treatment, mean ± SD of three experiments
Experimental: as §1

BAX = BAX level assay (ELISA) in HepG2; type: cell-based, human; settings: HepG2 cells, 24 h, vs untreated control
Experimental: (§2) The effect of compound 5 was also evaluated on caspase 3, caspase 9, BAX, and Bcl-2 protein levels in HepG2 (Table 6). […] Additionally, the level of Bcl-2 was reduced in the treated cells (0.18-fold) compared to untreated control cells.
(§3) Compound 5 effect on Caspase 3, caspase 9, BAX, and Bcl-2 levels was analyzed by following the method described in [17]. In 96-well plates, HepG2 cells were cultured and incubated for 24 h. The cells were then treated with compound 5 or 0.1% DMSO (v/v) for 24 h. Afterwards, caspase 3 and 9, BAX, and Bcl-2 levels were determined using ELISA assay kits KHO1091 (InvitrogenTM, Grand Island, NY, USA), EIA-4860 (DRU International Inc., Mountainside, NJ, USA), EIA-4487 (DRU International Inc., Mountainside, NJ, USA), and 99-0042 (InvitrogenTM, Grand Island, NY, USA), respectively, according to the manufacturers’ procedures.

caspase 3 = test: Caspase 3 level assay (ELISA) in HepG2; type: cell-based, human; settings: HepG2 cells, 24 h, vs untreated control
Experimental: as §2, §3

Bcl-2 = Bcl-2 level assay (ELISA) in HepG2; type: cell-based, human; settings: HepG2 cells, 24 h, vs untreated control
Experimental: as §2, §3

HepG2 cells [2] = test: Apoptosis analysis (Annexin V-FITC/PI flow cytometry); type: cell-based, human
Experimental: Annexin V and propidium iodide (PI) reagent were used to detect the cell death in apoptosis by binding to phosphatidyl serine and DNA in plasma membrane, respectively. The cell death was examined by staining HepG2 cells with Annexin V and PI, and cellular fluorescence analysis was then performed using flow cytometry (Table 5). According to the results, compound 5 induced apoptosis by 160-fold in the late stage and by 20-fold in the early stage. […] As shown in the dot plot results, compound 5 caused exerted noticeable cell damage compared to untreated cells (Figure 4). Collectively, the results of cell cycle and apoptosis analysis confirmed the cytotoxicity effects of compound 5.
Effect of compound 5 on cell programmed cell death was analyzed using Annexin V-FITC cell apoptosis detection kit (K101-100) (BioVision Techology, Inc., Exon, PA, USA) by following the method described in [17, 30]. Briefly, in 6-well plates, HepG2 cells at a density of 2 × 10^5 were cultured and incubated for 24 h. The cultured cells were then treated with compound 5 for 24 h. Afterwards, the cells were trypsinized and gathered via centrifugation (5 min, 300× g), washed twice with PBS, and suspended in 0.1 mL of a 1X binding buffer. Then, the cells were double-stained with 5 µL Annexin V-FITC and 5 µL PI in the dark at room temperature for 15 min before they were examined using an Epics XL-MCL™ Flow Cytometer (Beckman Coulter, Apeldoorn, The Netherlands). The excitation wavelength was 488 nm while the emission wavelength was 530 nm. Finally, the data were analyzed using Flowing software (version 2.5.1, Turku Centre for Biotechnology, Turku, Finland).

caspase 9 = test: Caspase 9 level assay (ELISA) in HepG2; type: cell-based, human; settings: HepG2 cells, 24 h, vs untreated control
Experimental: as §2, §3

CDK2 = CDK2 (Homo sapiens, UniProt P24941); test: Kinase inhibition assay (ELISA kit)
Experimental: (§4) In vitro kinase inhibition assays were assessed against CDK2, EGFR, HER2, and VEGFR2, as described in [17, 27, 28]. […] Afterwards, the wells were washed. Then, 100 µL of the prepared biotin antibody was placed into each well and left for 1 h at room temperature. The wells were washed again before adding 100 µL of streptavidin solution and left for 45 min at room temperature. Then, 100 µL of TMB substrate reagent was added after a third washing step, and the plates were left for 30 min at room temperature. Finally, 50 µL of the stop solution was added to each well and the color intensity was measured at 450 nm.

VEGFR2 = VEGFR2 (Homo sapiens, UniProt P35968); test: Kinase inhibition assay (ELISA kit)
Sequence of VEGFR2 (P35968 20-1356): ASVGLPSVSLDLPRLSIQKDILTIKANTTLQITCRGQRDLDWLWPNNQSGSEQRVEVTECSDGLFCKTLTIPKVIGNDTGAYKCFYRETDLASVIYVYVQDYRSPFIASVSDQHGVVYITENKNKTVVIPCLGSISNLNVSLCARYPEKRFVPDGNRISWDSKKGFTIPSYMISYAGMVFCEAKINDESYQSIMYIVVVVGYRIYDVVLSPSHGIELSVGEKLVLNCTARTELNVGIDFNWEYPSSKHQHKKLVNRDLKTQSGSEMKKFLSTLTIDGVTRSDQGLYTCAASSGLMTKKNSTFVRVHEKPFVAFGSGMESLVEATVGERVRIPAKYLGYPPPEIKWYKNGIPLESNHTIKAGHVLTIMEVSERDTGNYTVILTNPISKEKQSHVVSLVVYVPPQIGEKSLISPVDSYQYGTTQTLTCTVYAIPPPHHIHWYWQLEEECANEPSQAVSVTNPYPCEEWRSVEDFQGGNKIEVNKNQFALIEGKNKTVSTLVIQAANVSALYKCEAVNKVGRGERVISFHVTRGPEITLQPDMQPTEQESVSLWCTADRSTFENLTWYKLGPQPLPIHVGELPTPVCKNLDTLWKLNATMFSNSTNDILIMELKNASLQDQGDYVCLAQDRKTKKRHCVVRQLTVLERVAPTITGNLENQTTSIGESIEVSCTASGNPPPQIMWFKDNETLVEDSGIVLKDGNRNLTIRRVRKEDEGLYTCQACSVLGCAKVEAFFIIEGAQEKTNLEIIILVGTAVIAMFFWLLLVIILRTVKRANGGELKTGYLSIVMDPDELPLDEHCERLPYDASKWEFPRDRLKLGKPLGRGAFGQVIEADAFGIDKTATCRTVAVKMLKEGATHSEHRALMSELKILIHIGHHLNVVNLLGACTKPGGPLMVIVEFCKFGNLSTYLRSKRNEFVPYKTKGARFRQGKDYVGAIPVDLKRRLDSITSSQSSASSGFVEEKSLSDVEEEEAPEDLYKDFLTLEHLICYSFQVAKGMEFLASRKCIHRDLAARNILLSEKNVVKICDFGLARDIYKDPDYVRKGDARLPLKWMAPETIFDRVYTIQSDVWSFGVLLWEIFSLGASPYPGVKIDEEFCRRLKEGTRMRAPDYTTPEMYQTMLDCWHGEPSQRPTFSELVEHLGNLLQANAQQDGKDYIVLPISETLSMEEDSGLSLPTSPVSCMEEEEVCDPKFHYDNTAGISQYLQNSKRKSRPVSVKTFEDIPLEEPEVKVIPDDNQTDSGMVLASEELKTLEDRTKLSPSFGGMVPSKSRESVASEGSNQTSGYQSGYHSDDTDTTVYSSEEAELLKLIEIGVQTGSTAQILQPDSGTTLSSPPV
Experimental: as §4

HepG2 cells [3] = test: Cell cycle analysis (propidium iodide flow cytometry); type: cell-based, human; settings: 6.11 μM, 24 h
Experimental: Cell cycle analysis can determine at which phase in the cell cycle apoptosis occurs. The cell cycle is four phases consisting of G1 (growth), S (DNA synthesis), G2 (growth and preparation for mitosis), and M (mitosis). Normal cell growth and proliferation are controlled by various checkpoints at these phases. Thus, HepG2 cells were treated with 6.11 μM of compound 5 to determine at which phase apoptosis occurs in the cell cycle for 24 h (Figure 3 and Table 4).
Effect of compound 5 on cell cycle distribution was analyzed using following the method described in [17, 29]. Briefly, to determine the influence of compound 5 on the cell cycle progression of HepG2 cells, flow cytometry analysis was performed using Propidium Iodide flow cytometry kit/BD (ab139418). First, the cells were cultured at a density of 2 × 10^5/well and incubated for 24 h. Afterwards, the cells were treated with compound 5 for 24 h. Then, the cells were fixed using 70% ethanol for 12 h at 4 °C. The cells were then washed with cold PBS, incubated with 100 µL RNase A for 30 min at 37 °C, and stained with Propidium Iodide (400 µL) in the dark at room temperature for 30 min. The stained cells were identified by running Epics XLMCL™ flow cytometer equipment (Beckman Coulter, Apeldoorn, The Netherlands), and the results were interpreted using Flowing software (version 2.5.1, Turku Centre for Biotechnology, Turku, Finland).

HER2 = HER2 (Homo sapiens, UniProt P04626); test: Kinase inhibition assay (ELISA kit)
Sequence of HER2 (P04626 23-1255): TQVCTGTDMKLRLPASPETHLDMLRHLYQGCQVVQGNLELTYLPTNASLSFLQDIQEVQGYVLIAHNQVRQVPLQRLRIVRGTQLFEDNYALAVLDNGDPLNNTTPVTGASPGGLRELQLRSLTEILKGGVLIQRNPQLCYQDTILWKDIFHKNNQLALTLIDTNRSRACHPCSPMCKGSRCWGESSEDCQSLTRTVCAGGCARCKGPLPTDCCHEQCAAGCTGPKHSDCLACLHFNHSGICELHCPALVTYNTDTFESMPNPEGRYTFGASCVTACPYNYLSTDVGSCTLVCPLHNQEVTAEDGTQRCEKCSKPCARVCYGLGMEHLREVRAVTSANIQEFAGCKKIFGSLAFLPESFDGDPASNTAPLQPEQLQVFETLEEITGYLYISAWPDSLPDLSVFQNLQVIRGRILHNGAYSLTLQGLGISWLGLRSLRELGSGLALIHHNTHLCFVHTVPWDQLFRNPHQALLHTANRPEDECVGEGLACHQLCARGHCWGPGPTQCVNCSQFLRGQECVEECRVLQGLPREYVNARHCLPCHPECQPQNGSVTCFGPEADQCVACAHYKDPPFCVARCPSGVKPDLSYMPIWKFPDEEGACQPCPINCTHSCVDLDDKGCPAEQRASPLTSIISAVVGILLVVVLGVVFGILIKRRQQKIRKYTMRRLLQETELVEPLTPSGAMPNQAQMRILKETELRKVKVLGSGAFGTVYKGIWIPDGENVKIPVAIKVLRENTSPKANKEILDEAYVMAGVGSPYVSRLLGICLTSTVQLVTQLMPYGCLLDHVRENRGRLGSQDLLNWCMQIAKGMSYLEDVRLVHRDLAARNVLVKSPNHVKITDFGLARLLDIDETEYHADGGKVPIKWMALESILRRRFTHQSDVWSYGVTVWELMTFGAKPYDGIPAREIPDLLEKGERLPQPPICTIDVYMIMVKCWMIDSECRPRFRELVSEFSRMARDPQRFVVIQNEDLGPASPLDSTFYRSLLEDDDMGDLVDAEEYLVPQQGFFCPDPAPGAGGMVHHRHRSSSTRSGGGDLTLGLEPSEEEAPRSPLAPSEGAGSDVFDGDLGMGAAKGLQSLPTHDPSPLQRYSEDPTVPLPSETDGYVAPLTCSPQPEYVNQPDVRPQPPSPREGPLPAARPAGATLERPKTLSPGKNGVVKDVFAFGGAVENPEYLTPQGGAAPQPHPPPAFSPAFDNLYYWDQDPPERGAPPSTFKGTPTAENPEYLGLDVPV
Experimental: as §4

EGFR = EGFR (Homo sapiens, UniProt P00533); test: Kinase inhibition assay (ELISA kit)
Sequence of EGFR (P00533 25-1210): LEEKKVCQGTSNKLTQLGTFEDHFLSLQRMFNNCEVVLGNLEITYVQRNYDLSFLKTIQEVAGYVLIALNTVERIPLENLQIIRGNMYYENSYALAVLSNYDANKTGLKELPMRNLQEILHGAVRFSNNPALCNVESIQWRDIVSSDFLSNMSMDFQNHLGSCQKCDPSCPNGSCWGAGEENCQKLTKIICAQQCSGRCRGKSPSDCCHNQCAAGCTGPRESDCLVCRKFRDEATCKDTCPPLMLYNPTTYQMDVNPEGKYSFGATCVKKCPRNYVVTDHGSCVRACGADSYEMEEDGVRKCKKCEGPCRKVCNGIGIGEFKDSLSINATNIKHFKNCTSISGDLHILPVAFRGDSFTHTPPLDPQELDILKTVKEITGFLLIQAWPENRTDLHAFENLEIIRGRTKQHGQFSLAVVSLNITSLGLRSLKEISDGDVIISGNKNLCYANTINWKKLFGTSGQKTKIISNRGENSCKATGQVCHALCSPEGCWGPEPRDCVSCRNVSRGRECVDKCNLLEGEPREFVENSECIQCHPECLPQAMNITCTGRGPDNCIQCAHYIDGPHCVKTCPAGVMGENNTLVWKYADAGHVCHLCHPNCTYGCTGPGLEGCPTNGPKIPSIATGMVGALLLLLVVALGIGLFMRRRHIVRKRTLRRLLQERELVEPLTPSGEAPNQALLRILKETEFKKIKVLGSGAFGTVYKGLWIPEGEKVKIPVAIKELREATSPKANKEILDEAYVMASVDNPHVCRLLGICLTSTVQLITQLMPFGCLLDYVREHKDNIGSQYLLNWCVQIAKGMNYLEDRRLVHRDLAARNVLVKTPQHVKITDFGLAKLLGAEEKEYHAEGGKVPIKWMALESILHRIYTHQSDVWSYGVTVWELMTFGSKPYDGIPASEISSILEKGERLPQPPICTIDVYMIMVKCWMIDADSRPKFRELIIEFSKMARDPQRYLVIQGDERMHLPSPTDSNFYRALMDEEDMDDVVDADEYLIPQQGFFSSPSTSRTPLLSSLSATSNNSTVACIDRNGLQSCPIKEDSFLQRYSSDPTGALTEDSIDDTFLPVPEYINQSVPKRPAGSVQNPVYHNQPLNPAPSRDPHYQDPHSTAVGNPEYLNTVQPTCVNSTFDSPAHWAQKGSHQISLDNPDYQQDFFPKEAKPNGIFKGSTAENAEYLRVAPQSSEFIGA
Experimental: as §4

## O=C1Nc2ccccc2C1=NNC(=O)c1ccc(Nc2ncnc3[nH]ccc23)cc1 [Compound 1, 4-((7H-pyrrolo[2,3-d]pyrimidin-4-yl)amino)-N′-(2-oxoindolin-3-ylidene)benzohydrazide]
[1]
  Antiproliferative activity (in words): moderate antiproliferative activity
MDA-MB-231
  IC50: 16 ± 1.3 µM
HepG2
  IC50: 25.8 ± 1.9 µM
MCF-7
  IC50: 18.5 ± 1.5 µM
HeLa
  IC50: 12.4 ± 0.9 µM

## O=C1Nc2ccc(Cl)cc2C1=NNC(=O)c1ccc(Nc2ncnc3[nH]ccc23)cc1 [Compound 2, 4-((7H-pyrrolo[2,3-d]pyrimidin-4-yl)amino)-N′-(5-chloro-2-oxoindolin-3-ylidene)benzohydrazide]
MDA-MB-231
  IC50: 51.3 ± 2.9 µM
HepG2
  IC50: 67.4 ± 3.6 µM
MCF-7
  IC50: 72.5 ± 3.7 µM
HeLa
  IC50: 45.4 ± 2.6 µM

## O=C1Nc2ccc(F)cc2C1=NNC(=O)c1ccc(Nc2ncnc3[nH]ccc23)cc1 [Compound 3, 4-((7H-pyrrolo[2,3-d]pyrimidin-4-yl)amino)-N′-(5-fluoro-2-oxoindolin-3-ylidene)benzohydrazide]
MDA-MB-231
  IC50: 42.9 ± 2.6 µM
HepG2
  IC50: 59.3 ± 3.3 µM
MCF-7
  IC50: 63.7 ± 3.4 µM
HeLa
  IC50: 39.1 ± 2.4 µM

## Cc1ccc2c(c1)C(=NNC(=O)c1ccc(Nc3ncnc4[nH]ccc34)cc1)C(=O)N2 [Compound 4, 4-((7H-pyrrolo[2,3-d]pyrimidin-4-yl)amino)-N′-(5-methyl-2-oxoindolin-3-ylidene)benzohydrazide]
MDA-MB-231
  IC50: 73.2 ± 3.3 µM
HepG2
  IC50: 92.7 ± 4.5 µM
MCF-7
  IC50: 80.2 ± 4.2 µM
HeLa
  IC50: 75.4 ± 3.5 µM

## COc1ccc2c(c1)C(=NNC(=O)c1ccc(Nc3ncnc4[nH]ccc34)cc1)C(=O)N2 [Compound 5, 4-((7H-pyrrolo[2,3-d]pyrimidin-4-yl)amino)-N′-(5-methoxy-2-oxoindolin-3-ylidene)benzohydrazide]
BAX
  Gene Expression Fold Change Bax: 6.13 fold
BAX; listed as compound 5
  Gene Expression Fold Change Bax: 6 fold
Caspase 3
  Gene Expression Fold Change Caspase 3: 7.984 fold
Caspase 3; listed as compound 5
  Gene Expression Fold Change Caspase 3: 8 fold
Bcl-2
  Gene Expression Fold Change Bcl-2: 0.184 fold
Bcl-2; listed as compound 5
  Gene Expression Fold Change Bcl-2: 0.18 fold
HepG2 cells [2]; 24 h, Annexin V-FITC/PI
  Apoptosis Early: 13.28%
  Apoptosis Late: 21.16%
  Necrosis: 5.28%
HepG2 cells [2]; compared to untreated cells
  Increase in necrotic cell death: 4.75 fold
  Induction of apoptosis in the early stage: 20 fold
  Induction of apoptosis in the late stage: 160 fold
Caspase 9
  Gene Expression Fold Change Caspase 9: 4.853 fold
Caspase 9; listed as compound 5
  Gene Expression Fold Change Caspase 9: 5 fold
CDK2
  IC50: 0.131 ± 0.007 µM
VEGFR2
  IC50: 0.178 ± 0.009 µM
HepG2 cells [3]
  Cell Cycle Distribution %G0-G1: 49.02%
  Cell Cycle Distribution %G2/M: 6.05%
  Cell Cycle Distribution %Pre-G1: 39.72%
  Cell Cycle Distribution %S: 44.93%
  Cell cycle arrest phase: arrested the cell cycle of HepG2 cells at G1 and S phases
MDA-MB-231
  IC50: 2.48 ± 0.1 µM
HepG2
  IC50: 6.11 ± 0.4 µM
MCF-7
  IC50: 5.93 ± 0.3 µM
HeLa
  IC50: 1.98 ± 0.1 µM
HER2
  IC50: 0.081 ± 0.002 µM
EGFR
  IC50: 0.103 ± 0.006 µM

## COc1cccc2c1C(=O)c1c(O)c3c(c(O)c1C2=O)C[C@@](O)(C(=O)CO)C[C@@H]3O[C@H]1C[C@H](N)[C@H](O)[C@H](C)O1 [DOXORUBICIN, doxorubicin, reference compound]
HepG2
  IC50: 4.5 ± 0.2 µM

## CCN(CC)CCNC(=O)c1c(C)[nH]c(/C=C2\C(=O)Nc3ccc(F)cc32)c1C [Sunitinib, reference compound]
MDA-MB-231
  IC50: 8.41 ± 0.7 µM
HepG2
  IC50: 6.82 ± 0.5 µM
MCF-7
  IC50: 5.19 ± 0.4 µM
HeLa
  IC50: 7.48 ± 0.6 µM

Source: paper PMC10420662, “Novel 7-Deazapurine Incorporating Isatin Hybrid Compounds as Protein Kinase Inhibitors: Design, Synthesis, In Silico Studies, and Antiproliferative Evaluation” (Molecules, 2023)
